Measurements taken from patent US20220162610A1, “NOVEL RNA TRANSCRIPT” (PTC Therapeutics, Inc., priority 2020, published 2022).

What was measured:
[1] = system: mouse HTT protein; test: Mouse HTT protein expression under compound treatment; format: cell-based; conditions: at concentrations that reduce human HTT protein expression
[2] = system: human HTT protein; test: Pharmacodynamic study in Hu97/18 mice, HTT protein in tissues, CSF and plasma; format: in vivo
Protocol: Test mice were euthanised and brain, muscle (quadriceps), and blood samples were harvested 2 hours after the last dose on Day 20. Prior to analysis, crude total protein from brain and muscle tissue samples was prepared by sample lysis in MSD® assay buffer 1 (MSD®) with Complete™ Protease Inhibitor Cocktail added (Roche Diagnostics). Tissues were then homogenised using TissueLyser II (Qiagen) plus a 5 mm stainless steel bead. The lysate was clarified by centrifugation at 16,000×g for 20 minutes at 4° C. and the total protein concentration quantified with the Pierce™ BCA Protein Assay Kit (Thermo Scientific) according to the manufacturer's instructions. Whole blood was collected by cardiac puncture into EDTA collection tubes. An aliquot (100-200 μL) was added to 1.5 mL of eBioscience™ 1× Red Blood Cell Lysis Buffer (Thermo Fisher) and mixed well for 5 minutes before collecting the white blood cells (WBC) by centrifugation at 400×g. The supernatant was discarded, and the pellet of WBCs was frozen in liquid nitrogen and stored at −70° C. Brain and muscle sample lysates were analysed for hHTT and KRAS protein expression using the ECL protein assay (described previously); using the same method WBC samples were also analysed for hHTT expression but not KRAS.
Hu97/Hu18: Both sexes of 2-4 month old Hu97/181 mice were used. […]

[3] = system: SH-SY5Y cells; test: RNA-seq analysis of transcriptome and splicing changes in SH-SY5Y cells; format: cell-based, human; conditions: for splicing events altered: 24 h
Protocol: SHY5Y cells were seeded in 6-well plates at 6×10^5 cells/well in 2 mL 10% FBS, DMEM and incubated for 4 hours. Cells were then treated with two biological replicates of HTT-C1 at 24 nM or 100 nM (in 0.1% DMSO), or four biological replicates of vehicle control (DMSO) for 24 hours (37° C., 5% CO2, 100% relative humidity). HEK293 cells transfected with U1 snRNA minigene constructs treated with either duplicates of 1 μM HTT-C1 or 0.5% DMSO control and incubated for 48 hours (37° C., 5% CO2, 100% relative humidity).
For library preparation and sequencing, mRNA was enriched from about 3 μg of total RNA using oligo(dT) beads (ThermoFisher Scientific). The mRNA was fragmented randomly using fragmentation buffer followed by cDNA synthesis using the mRNA template and random hexamers primer. Second-strand synthesis buffer (Illumina), deoxynucleotides, ribonuclease H and DNA polymerase I were added to initiate second-strand synthesis. After a series of terminal repair, A-ligation and sequencing adaptor ligation, the double-stranded cDNA library was size selected and enriched by PCR. RNA libraries were sequenced in a HiSeq sequencer (Illumina).
RNA sequencing reads were mapped to human genome (hg19) using Spliced Transcripts Alignment to a Reference (STAR) software (version 2.5) (Dobin et L., (2013) Bioinformatics 1; 29(1):15-21). Uniquely mapped reads (with MAPQ>10) having <5 nt/100 nt mismatches were used for analysis.
For gene expression analysis, the number of reads in a coding sequence (CDS) region of protein-coding genes and exonic regions of non-coding genes were counted and analyzed using DESeq2 (Love et al., (2014) Genome Biology, 15:550). For splicing analysis, reads were counted for different exons or exonic regions. For each exon, a Percent-Spliced-In (PSI) value was calculated using the percent of average read number supporting the inclusion of the exon (include both the upstream and downstream junctions) among all reads supporting either the inclusion or the exclusion of an exon. A minimal of 20 for the denominator of PSI calculation was required. Otherwise a “NA” value would be generated. PSI values for biological replicates were averaged and the PSI difference between two treatment groups was calculated. For statistical test, a 2×2 read counts table was made for each exon with rows for reads supporting inclusion or exclusion and columns for the two comparing sample groups (biological replicates were combined). Fisher's Exact Test was used for statistical test. PSI change of >20% (or <−20%) and P-value <0.001 was used to select exons being regulated by the treatment.

CC1(C)CC(Oc2ccc(-c3ccc(-c4ccnc(O)c4)cc3O)nn2)CC(C)(C)N1 [HTT-C1]
mouse HTT protein expression [1]: no effect

CCN1CCC(c2cc3c(F)cc(-c4cc(C)c5nc(C)cn5n4)cc3nn2)CC1 [HTT-D3]
HTT protein in striatum and cortex ([2]; 2, 6 or 12 mg/kg daily for 21 days): uniform HTT protein reduction | HTT protein within the brain and peripheral tissues ([2]; Hu97/18 mice): dose dependent and more equitable lowering of HTT protein

CC1(C)CC(Oc2ccc(-c3ccc(-c4cn[nH]c4)cc3O)nn2)CC(C)(C)N1 [HTT-C2]
UP cassette exons with no annotation for at least one splice site ([3]; 24 nM): 22% | expression of HTT (RNA-seq) ([3]; 24 nM (~2x the IC50)): selectively and potently downregulated expression of HTT | splicing events altered ([3]; 24 nM): 165 | UP cassette exons with no annotation for at least one splice site ([3]; 100 nM): 44% | splicing events altered ([3]; 100 nM): 215 | pseudoexons activated ([3]; FIG. 6D comparison with U1-GA variant): 27 | pseudoexons induced ([3]; at either concentration (24 nM or 100 nM)): 31
